This is an account of results in patent US9403776B2, “Aryl- and heteroaryl-substituted tetrahydrobenzazepines and use thereof to block reuptake of norepinephrine, dopamine, and serotonin” (Albany Molecular Research, Inc., priority 2005, dated 2016).

Counter-ions that a name gives are not always drawn.

Broadly, the melting point is the temperature of the solid-liquid transition. Turning to `COc1ccc2c(c1)CN(C)CCC2c1ccc(F)c(Cl)c1` (racemic) (as salt: hydrochloride) [Example 11, (+/−)-5-(3-chloro-4-fluorophenyl)-8-methoxy-2-methyl-2,3,4,5-tetrahydro-1H-benzo[c]azepine], the melting point was 167 to 169 °C.

On to `CN1CCC(c2ccccc2)c2ccc(N3CCN(c4ccccn4)CC3)cc2C1` (single isomer, unassigned; (-)) (as salt: tartrate) [Example 68 (−), (−)-2-methyl-5-phenyl-8-(4-(pyridine-2-yl)piperazin-1-yl)-2,3,4,5-tetrahydro-1H-benzo[c]azepine], for which the melting point is 112 to 115 °C.

The compound `COc1ccc2c(c1)CN(C)CCC2c1ccc(O)c(F)c1` (stereo not drawn) (as salt: maleate) [Example 63, 2-fluoro-4-(8-methoxy-2-methyl-2,3,4,5-tetrahydro-1H-benzo[c]azepin-5-yl)phenol] returned a melting point of 50 to 54 °C.

Turning to `CN1CCC(c2ccccc2)c2ccc(N3CCN(c4ncccn4)CC3)cc2C1` (single isomer, unassigned; (+)) (as salt: tartrate) [Example 69, (+)-2-methyl-5-phenyl-8-(4-(pyrimidin-2-yl)piperazin-1-yl)-2,3,4,5-tetrahydro-1H-benzo[c]azepine], the melting point fell in the range of 119 to 121 °C.

`CN1CCC(c2ccc(Cl)cc2)c2ccc(-c3ccc(N(C)C)nn3)cc2C1` (single isomer, unassigned; (-)) (as salt: maleate) [Example 46, (−)-{6-[5-(4-chlorophenyl)-2-methyl-2,3,4,5-tetrahydro-1H-benzo[c]azepine-8-yl]-pyridazin-3-yl}-dimethylamine] registered a melting point of 109 to 110 °C.

Turning to `COc1ccc2c(c1)CN(C)CCC2c1ccc(F)c(F)c1` (racemic) (as salt: hydrochloride) [Example 9, (+/−)-5-(3,4-difluorophenyl)-8-methoxy-2-methyl-2,3,4,5-tetrahydro-1H-benzo[c]azepine], the melting point fell in the range of 139 to 141 °C.

`COc1ccc2c(c1)CN(C)CCC2c1ccc(Cl)cc1` (racemic) (as salt: hydrochloride) [Example 7, (+/−)-5-(4-chlorophenyl)-8-methoxy-2-methyl-2,3,4,5-tetrahydro-1H-benzo[c]azepine] came in with a melting point of 152 to 153 °C.

For `CN1CCC(c2ccccc2)c2ccc(-c3cncnc3)cc2C1` (single isomer, unassigned; (+)) (as salt: maleate) [Example 28, (+)-2-methyl-5-phenyl-8-(pyrimidin-5-yl)-2,3,4,5-tetrahydro-1H-benzo[c]azepine], the melting point is 93 to 96 °C.

As to `CC(C)N1CCC(c2ccccc2)c2ccc(N3CCOCC3)cc2C1` (single isomer, unassigned; (-)) (as salt: maleate) [Example 58 (−), (−)-4-(2-isopropyl-5-phenyl-2,3,4,5-tetrahydro-1H-benzo[c]azepin-8-yl)morpholine], the melting point is 195 to 197 °C.

In turn, `CN1CCC(c2ccc3ccccc3c2)c2ccc(-c3cccnn3)cc2C1` (single isomer, unassigned; (+)) (as salt: maleate) [Example 50, (+)-2-methyl-5-naphthalen-2-yl-8-pyridazin-3-yl-2,3,4,5-tetrahydro-1H-benzo[c]azepine] returned a melting point of 99 to 102 °C.

For the compound `CN1CCC(c2ccccc2)c2ccc(CN3CCOCC3)cc2C1` (single isomer, unassigned; (+)) (as salt: tartrate) [Example 22, (+)-4-((2-methyl-5-phenyl-2,3,4,5-tetrahydro-1H-benzo[c]azepin-8-yl)methyl)morpholine], the melting point is 124 to 127 °C.

In the case of `CN1CCC(c2ccc(Cl)cc2)c2ccc(-c3cccnn3)cc2C1` (single isomer, unassigned; (+)) (as salt: hydrochloride) [Example 40, (+)-5-(4-chlorophenyl)-2-methyl-8-pyridazin-3-yl-2,3,4,5-tetrahydro-1H-benzo[c]azepine], the melting point was 187 to 189 °C (dec.).

In the case of `COc1ccc2c(c1)CN(C)CCC2c1ccccc1` (racemic) (as salt: fumarate) [Example 1, (+/−)-8-methoxy-2-methyl-5-phenyl-2,3,4,5-tetrahydro-1H-benzo[c]azepine], the melting point is 171 to 173 °C.

With `FCCN1CCC(c2ccccc2)c2ccc(N3CCOCC3)cc2C1` (single isomer, unassigned; (+)) (as salt: tartrate) [Example 60, (+)-4-(2-(2-fluoroethyl)-5-phenyl-2,3,4,5-tetrahydro-1H-benzo[c]azepin-8-yl)morpholine], the melting point was 102 to 105 °C.

Turning to `CN1CCC(c2ccc(Cl)cc2)c2ccc(-c3cnccn3)cc2C1` (single isomer, unassigned; (-)) (as salt: maleate) [Example 41 (−), (−)-5-(4-chlorophenyl)-2-methyl-8-(pyrazin-2-yl)-2,3,4,5-tetrahydro-1H-benzo[c]azepine], the melting point lay within 82 to 84 °C.

As to `Cc1ccc(-c2ccc3c(c2)CN(C)CCC3c2cccc(F)c2)nn1` (single isomer, unassigned; (+)) (as salt: citrate) [Example 84 (+), (+)-5-(3-fluorophenyl)-2-methyl-8-(6-methylpyridazin-3-yl)-2,3,4,5-tetrahydro-1H-benzo[c]azepine], the melting point was in the range of 90 to 95 °C.

Consider `CN1CCC(c2ccccc2)c2ccc(-c3cnccn3)cc2C1` (single isomer, unassigned; (+)) (as salt: maleate) [Example 29, (+)-2-methyl-5-phenyl-8-(pyrazin-2-yl)-2,3,4,5-tetrahydro-1H-benzo[c]azepine], for which the melting point is 67 to 69 °C.

`Cc1ccc(-c2ccc3c(c2)CN(C)CCC3c2ccccc2)nn1` (single isomer, unassigned; (+)) (as salt: hydrochloride) [Example 24, (+)-2-methyl-8-(6-methyl-pyridazin-3-yl)-5-phenyl-2,3,4,5-tetrahydro-1H-benzo[c]azepine] yielded a melting point of 168 to 170 °C.

As to `CN1CCC(c2ccc3sccc3c2)c2ccc(-c3cncnc3)cc2C1.O=C(O)/C=C\C(=O)O` (single isomer, unassigned; (+)) [Example 104, (+)-5-(benzo[b]thiophen-5-yl)-2-methyl-8-(pyrimidin-5-yl)-2,3,4,5-tetrahydro-1H-benzo[c]azepine, maleate salt], the melting point is 111 to 117 °C.

Compound `CN1CCC(c2ccc(F)cc2)c2ccc(N3CCOCC3)cc2C1` (single isomer, unassigned; (+)) (as salt: maleate) [Example 85, (+)-4-(5-(4-fluorophenyl)-2-methyl-2,3,4,5-tetrahydro-1H-benzo[c]azepin-8-yl)morpholine] showed a melting point of 87 to 90 °C.

As for `CN1CCC(c2ccccc2)c2ccc(-c3cccnn3)cc2C1` (single isomer, unassigned; (+)) (as salt: hydrochloride) [Example 25, (+)-2-methyl-5-phenyl-8-(pyridazin-3-yl)-2,3,4,5-tetrahydro-1H-benzo[c]azepine], the melting point lay in the range of 154 to 156 °C.

`CN1CCC(c2ccccc2)c2ccc(-c3ccc4nccn4c3)cc2C1` (single isomer, unassigned; (+)) (as salt: tartrate) [Example 73, (+)-8-(imidazo[1,2-a]pyridin-6-yl)-2-methyl-5-phenyl-2,3,4,5-tetrahydro-1H-benzo[c]azepine] gave a melting point of 142 to 144 °C.

Regarding `CN1CCC(c2ccccc2)c2ccc(N3CCOCC3)cc2C1` (single isomer, unassigned; (+)) (as salt: maleate) [Example 34, (+)-4-(2-methyl-5-phenyl-2,3,4,5-tetrahydro-1H-benzo[c]azepin-8-yl)morpholine], the melting point was 88 to 89 °C.

For `Cc1ccc(-c2ccc3c(c2)CN(C)CCC3c2ccc(C#N)c(F)c2)nn1` (single isomer, unassigned; (+)) (as salt: tartrate) [Example 92 (+), (+)-2-fluoro-4-(2-methyl-8-(6-methylpyridazin-3-yl)-2,3,4,5-tetrahydro-1H-benzo[c]azepin-5-yl)benzonitrile], the melting point is 112 to 115 °C.

Regarding `Cc1ccc(-c2ccc3c(c2)CN(C)CCC3c2ccc3sccc3c2)nn1.O=C(O)/C=C\C(=O)O` (single isomer, unassigned; (+)) [Example 106, (+)-5-(benzo[b]thiophen-5-yl)-2-methyl-8-(6-methylpyridazin-3-yl)-2,3,4,5-tetrahydro-1H-benzo[c]azepine, maleate salt], the melting point is 105 to 109 °C.

For the compound `COc1ccc(C2CCN(C)Cc3cc(OC)ccc32)cc1` (single isomer, unassigned; (-)) (as salt: hydrochloride) [Example 6 (−), (−)-5-(4-methoxyphenyl)-8-methoxy-2-methyl-2,3,4,5-tetrahydro-1H-benzo[c]azepine], the melting point was in the range of 193 to 194 °C.

In the case of `COc1ccc2c(c1)CN(C)CCC2c1ccccc1Cl` (racemic) (as salt: hydrochloride) [Example 10, (+/−)-5-(2-chlorophenyl)-8-methoxy-2-methyl-2,3,4,5-tetrahydro-1H-benzo[c]azepine], the melting point lay in the range of 129 to 132 °C.

Compound `Cc1nc(-c2ccc3c(c2)CN(C)CCC3c2ccccc2)no1` (single isomer, unassigned; (+)) (as salt: tartrate) [Example 33, (+)-5-methyl-3-(2-methyl-5-phenyl-2,3,4,5-tetrahydro-1H-benzo[c]azepin-8-yl)-1,2,4-oxadiazole] displayed a melting point of 102 to 104 °C.

With `CN1CCC(c2ccc3ccccc3c2)c2ccc(N3CCOCC3)cc2C1` (single isomer, unassigned; (+)) (as salt: maleate) [Example 51, (+)-2-methyl-8-morpholin-4-yl-5-naphthalen-2-yl-2,3,4,5-tetrahydro-1H-benzo[c]azepine], the melting point was in the range of 110 to 112 °C.

`COc1ccc2c(c1)CN(C)CCC2c1ccc2sccc2c1` (single isomer, unassigned; (-)) (as salt: maleate) [Example 52 (−), (−)-5-benzo[b]thiophen-5-yl-8-methoxy-2-methyl-2,3,4,5-tetrahydro-1H-benzo[c]azepine] yielded a melting point of 92 to 95 °C.
